Source: patent US7265156B2 (Dospharma, priority 2000, dated 2007)
Where a name gives a salt, the structure may show the parent alone. Read-outs that look alike come from different tables or passages of the source.

Columns and labels:
[1] = system: NIDDM patients; conditions: humans, simultaneous administration, arginine 30 g intravenous over 30 min; cited from earlier work
[2] = system: rats made diabetic with fructose; assay: Anti-diabetic activity in rats made diabetic with fructose at 10% in the drinking water; type: in vivo, rat; conditions: for 21 days fructose (glycemia mM) / Control (glycemia mM): rats; for 21 days fructose (glycemia mM): group baseline after 21 days fructose, before treatment; for Control (glycemia mM): group baseline before fructose and before treatment
Procedure: The second model is prepared by administering fructose at 10% in the drinking water of the rats for three weeks. An insulin resistance develops, followed by diabetes of […] type. […]

[3] = system: streptozotocine model and fructose model; conditions: rats, 50 mg/kg; cited from earlier work
[4] = 50 mg/kg
[5] = system: hamsters made diabetic by fructose; assay: Anti-diabetic activity in hamsters made diabetic by fructose for three months; type: in vivo, hamster; conditions: for 2 weeks treatment (glycemia mg/dl): hamsters, fructose 3 months, 10 mg/kg/day, fructose only 143, control without fructose 91 mg/dl
Procedure: The anti diabetic activity was also tested on hamsters made diabetic by the administration of fructose for three months. […]

[6] = system: rats made diabetic with streptozotocin; assay: Anti-diabetic activity in rats made diabetic with streptozotocin; type: in vivo, rat; conditions: streptozotocin rats (50 mg/kg IP); for hyperglycemia after treatment: 30 mg/kg; for hyperglycemia before treatment: baseline of the 30 mg/kg group
Text: From the pharmacological point of view, the anti-diabetic activity was studied on two models of rats made diabetic.

[7] = system: microcirculation of the hamster cheek pouch; assay: Study on the cheek pouch of the hamster (microcirculation); type: in vivo; conditions: vasodilatory action of arginine and action of metformin on vasomotion
[8] = In vitro assay of cleavage in an intestinal juice; type: in vitro ADME; conditions: 37° C., arginine hemisuccinimide part not modified
Procedure: A preparation of intestinal juice containing trypsin, peptidases, lipase, amylase and all the other enzymes of the exocrine pancreas is used. This assay is validated beforehand using calibration compounds. A known amount (of the order of one microgram) of the compound A′V′C′ is mixed together with a known amount of intestinal juice (the trypsin and lipase contents of which are controlled). The reaction mixture is kept at 37° C. for one hour. This time is compatible with the intestinal transit. Samples are taken every 15 min, and the products A and C are detected and their concentration measured using HPLC coupled to a UV detector, or a mass spectrometer if it is not possible to use UV. The columns used depend on the nature of A and of C, but are generally ion-exchange columns, because of the presence of released alcohol, amine or acid forms. […] This assay can be coupled with determination of the release of A (biguanide), C (transporter) and V in the gastric juice, using exactly the same principle but replacing the intestinal juice with gastric juice.
A second assay is carried out on a rat hepatocyte culture, according to the method described above.

Row | Compound | 4 days treatment (glycemia mM) ([2]; fructose rats, 30 mg/kg/day) [mM] | 8 days treatment (glycemia mM) ([2]; fructose rats, 30 mg/kg/day) [mM] | 12 days treatment (glycemia mM) ([2]; fructose rats, 30 mg/kg/day) [mM] | 21 days treatment (glycemia mM) ([2]; fructose rats, 30 mg/kg/day) [mM] | 21 days fructose (glycemia mM) [2] [mM] | Control (glycemia mM) [2] [mM] | 2 weeks treatment (glycemia mg/dl) [5] [mg/dL] | hyperglycemia after treatment [6] [mM] | hyperglycemia before treatment [6] [mM] | further results
1 | N=C(N)NCCC[C@H](N)C(=O)O [arginine] | 14.37 ± 0.20 | 12.56 ± 0.89 | 11.98 ± 0.71 | 10.73 ± 1.27 | 13.24 ± 0.62 | 6.87 ± 0.14 |  |  |  | effect on the antihyperglycemic effects of metformin [1]: not modified
2 | CN(C)C(=N)N=C(N)N [metformin hydrochloride] |  |  |  |  |  |  |  |  |  | activity on conventional models of non-insulin dependent diabetes [3]: active; concentration peak ([4]; rat, in vivo, po): 3900 ng/mL; time of concentration peak ([4]; rat, in vivo, po): ≤ 90 min
3 | CN(C)C(=N)NC(=N)N [metformin, N,N-dimethylimidodicarbonimidic diamide] | 13.41 ± 0.52 | 10.83 ± 0.64 | 9.78 ± 0.72 | 9.87 ± 0.68 | 12.52 ± 0.52 | 6.94 ± 0.13 | 112 | 9.85 | 12.11 | effect on the hemodynamic and hemorheological action of arginine [1]: potentiates
4 | arginine hemisuccinimide-metformin hemisuccinate |  |  |  |  | 12.14 ± 0.28 | 6.84 ± 0.06 | 93 | 7.56 | 12.66 | effects on the microcirculation [7]: reproduces at least the effects of the two active principles; 4 days treatment (glycemia mM) ([2]; fructose rats, 70 mg/kg/day): 10.92 ± 0.44 mM; 8 days treatment (glycemia mM) ([2]; fructose rats, 70 mg/kg/day): 9.13 ± 0.64 mM; 12 days treatment (glycemia mM) ([2]; fructose rats, 70 mg/kg/day): 8.43 ± 0.52 mM; 21 days treatment (glycemia mM) ([2]; fructose rats, 70 mg/kg/day): 7.76 ± 0.78 mM; anti-diabetic activity compared with metformin alone ([2]; fructose rats, equivalent dose of metformin base): significantly more active; anti-diabetic activity compared with metformin on its own ([5]; fructose hamsters, equal dose of 10 mg/kg/day, two weeks of treatment): significantly more active; time of concentration peak ([4]; rats, oral, plasma metformin): 60 min; release of the metformin [8]: Immediate release
